Assay [1] is described as follows: Binding affinity to 5'-FAM-pre-miR-372 (unknown origin) after 4 hrs by fluorescence assay.
The nature of assay [2]: Binding affinity to 5'-FAM-pre-miR-17 (unknown origin) after 4 hrs by fluorescence assay.
Assay [3] is described as follows: Binding affinity to 5'-FAM-pre-miR-373 (unknown origin) after 4 hrs by fluorescence assay.
Assay [4] is described as follows: Binding affinity to 5'-FAM-pre-miR-372 (unknown origin) after 4 hrs by fluorescence assay in presence of 100-fold excess of Escherichia coli tRNA.
Assay [5] can be described thus: Ratio of Kd for 5'-FAM-pre-miR-372 (unknown origin) in presence of 100-fold excess of 15-mer DNA to Kd for 5'-FAM-pre-miR-372 (unknown origin).
The nature of assay [6]: Ratio of Kd for 5'-FAM-pre-miR-372 (unknown origin) in presence of 100-fold excess of Escherichia coli tRNA to Kd for 5'-FAM-pre-miR-372 (unknown origin).
Assay [7] is described as follows: Binding affinity to 5'-FAM-pre-miR-372 (unknown origin) assessed as change in total free energy by thermodynamic assay.
The nature of assay [8]: Inhibition of pre-miR-373 (unknown origin) cleavage assessed as reduction of oncogenic microRNAs biogenesis by measuring fluorescence every minute for 5 hrs using 5'-FAM,3'-dabcyl-pre-miRNA beacons by FRET assay in presence of recombinant Dicer.
Assay [9] can be described thus: Binding affinity to 5'-FAM-pre-miR-372 (unknown origin) after 4 hrs by fluorescence assay in presence of 100-fold excess of 15-mer DNA.
Assay [10] in a line: Inhibition of pre-miR-372 (unknown origin) cleavage assessed as reduction of oncogenic microRNAs biogenesis by measuring fluorescence every minute for 5 hrs using 5'-FAM,3'-dabcyl-pre-miRNA beacons by FRET assay in presence of recombinant Dicer.
Assay [11] can be described thus: Inhibition of pre-miR-373 (unknown origin) cleavage assessed as reduction of oncogenic microRNAs biogenesis at 200 uM by measuring fluorescence every minute for 5 hrs using 5'-FAM,3'-dabcyl-pre-miRNA beacons by FRET assay in presence of recombinant Dicer.
Assay [12] in a line: Inhibition of pre-miR-21 (unknown origin) cleavage assessed as reduction of oncogenic microRNAs biogenesis at 200 uM by measuring fluorescence every minute for 5 hrs using 5'-FAM,3'-dabcyl-pre-miRNA beacons by FRET assay in presence of recombinant Dicer.
Assay [13] can be described thus: Inhibition of pre-miR-372 (unknown origin) cleavage assessed as reduction of oncogenic microRNAs biogenesis at 200 uM by measuring fluorescence every minute for 5 hrs using 5'-FAM,3'-dabcyl-pre-miRNA beacons by FRET assay in presence of recombinant Dicer.
Assay [14] in a line: Inhibition of pre-miR-17 (unknown origin) cleavage assessed as reduction of oncogenic microRNAs biogenesis at 200 uM by measuring fluorescence every minute for 5 hrs using 5'-FAM,3'-dabcyl-pre-miRNA beacons by FRET assay in presence of recombinant Dicer.
The nature of assay [15]: Inhibition of pre-miR-21 (unknown origin) cleavage assessed as reduction of oncogenic microRNAs biogenesis by measuring fluorescence every minute for 5 hrs using 5'-FAM,3'-dabcyl-pre-miRNA beacons by FRET assay in presence of recombinant Dicer.
A short description of assay [16]: Inhibition of pre-miR-17 (unknown origin) cleavage assessed as reduction of oncogenic microRNAs biogenesis by measuring fluorescence every minute for 5 hrs using 5'-FAM,3'-dabcyl-pre-miRNA beacons by FRET assay in presence of recombinant Dicer.

The text below walks through data of ChEMBL document CHEMBL3603759, “Ribosome-targeting antibiotics as inhibitors of oncogenic microRNAs biogenesis: Old scaffolds for new perspectives in RNA targeting” (Bioorg Med Chem, 2015).

Active and inactive are the calls of the source. No cut-off for these calls is given here.

As usually defined, the Kd is the constant that tells how readily two partners part at equilibrium. In the case of `COc1ccc(C[C@H](N)C(=O)N[C@H]2[C@@H](O)[C@H](n3cnc4c(N(C)C)ncnc43)O[C@@H]2CO)cc1` [PUROMYCIN], the values for the Kd in assay [1] (read-out: Kd), in assay [2] (read-out: Kd) and in assay [3] (read-out: Kd) were 11.8 µM, 5.85 µM and 12.7 µM, respectively.

The term IC50 denotes the midpoint of a concentration-inhibition curve. By inhibition is commonly meant how much of the control response was suppressed. As to `NC[C@H]1O[C@H](O[C@H]2[C@H](O)[C@@H](O)[C@H](N)C[C@@H]2N)[C@H](N)[C@@H](O)[C@@H]1O` [NEAMINE], the Kd in assay [4] was found to be 394 µM; in assay [1] (read-out: Kd) it was 160 µM; in assay [2] (read-out: Kd), 24.9 µM; in assay [3] (read-out: Kd), 187 µM; in [9], 248 µM. The figures for the Ratio in assay [5] and in [6] were 1.5 and 2.5, respectively. For the same compound, the Activity in assay [7] was determined as 72%. In addition, the IC50 is 751 µM in assay [8] and 298 µM in assay [10]. Further, the inhibition in assay [11], in assay [12], in assay [13] and in assay [14] was 10% each time.

As to `CN[C@@H]1[C@H](O)[C@H](NC)[C@H]2O[C@@]3(O)C(=O)C[C@@H](C)O[C@H]3O[C@@H]2[C@H]1O` [SPECTINOMYCIN], the Kd result in [1], in assay [2] and in assay [3] was “Not Active” throughout. For the same compound, the inhibition entry in assay [11], in [12], in assay [13] and in assay [14] was “inactive” each time.

For `CC[C@H]1OC(=O)[C@H](C)[C@@H](O[C@H]2C[C@@](C)(OC)[C@@H](O)[C@H](C)O2)[C@H](C)[C@@H](O[C@@H]2O[C@H](C)C[C@H](N(C)C)[C@H]2O)[C@](C)(O)C[C@@H](C)CN(C)[C@H](C)[C@@H](O)[C@]1(C)O` [AZITHROMYCIN], the Kd in assay [4] came to 1.9 µM; in assay [1] (read-out: Kd) it was 1.62 µM; in assay [2] (read-out: Kd), 1.63 µM; in assay [3] (read-out: Kd) it was 1.41 µM; in [9], 7.43 µM. Also, the results for the Ratio in [5] and in assay [6] were 4.5 and 1.2, respectively.

For the compound `NC[C@@H]1O[C@H](O[C@H]2[C@@H](O)[C@H](O[C@@H]3[C@@H](O)[C@H](N)C[C@H](N)[C@H]3O[C@H]3O[C@H](CO)[C@@H](O)[C@H](O)[C@H]3N)O[C@@H]2CO)[C@H](N)[C@@H](O)[C@@H]1O` [PAROMOMYCIN], the Kd was found to be 133 µM in [4]; 138 µM in assay [1] (read-out: Kd); 44 µM in assay [2] (read-out: Kd); 91.2 µM in [3] (read-out: Kd); 167 µM in assay [9]. Further, the results for the Ratio in assay [5] and in assay [6] were 1.2 and 1, respectively. The Activity in assay [7] stood at 61%. In addition, the IC50 is 345 µM in assay [8], 773 µM in assay [10] and 543 µM in [15]. Further, the inhibition in assay [11], in assay [12], in [13] and in assay [14] was 10% in each case.

For the compound `CC[C@H]1OC(=O)[C@H](C)[C@@H](O[C@H]2C[C@@](C)(OC)[C@@H](O)[C@H](C)O2)[C@H](C)[C@@H](O[C@@H]2O[C@H](C)C[C@H](N(C)C)[C@H]2O)[C@](C)(O)C[C@@H](C)C(=O)[C@H](C)[C@@H](O)[C@]1(C)O` [ERYTHROMYCIN], the Kd in assay [4] stood at 8.73 µM; in [1] (read-out: Kd) it was 6.11 µM; in [2] (read-out: Kd), 27.4 µM; in assay [3] (read-out: Kd) it was 6.51 µM; in [9], 30.7 µM. The Ratio in [5] stood at 5; in [6], 1.4.

For `CN[C@@H]1[C@@H](O[C@H]2O[C@H](CO)[C@@H](N)[C@H](O)[C@H]2O)OC2C[C@@H](N)[C@@H](O[C@H]3[C@H](O)[C@@H](O)[C@H](N)C[C@@H]3N)OC2[C@@H]1O` (stereo partly drawn) [APRAMYCIN], the Kd is 9.05 µM in [4]; 2.99 µM in [1] (read-out: Kd); 1.03 µM in assay [2] (read-out: Kd); 4.2 µM in [3] (read-out: Kd); 6.55 µM in assay [9]. In addition, the Ratio in assay [5] turned out to be 2.2; in assay [6], 3. In addition, the Activity in assay [7] worked out at 72%. Also, the IC50 in assay [8] came out at 335 µM; in assay [10], 162 µM; in assay [15], 170 µM. The inhibition in assay [11], in [12], in assay [13] and in [14] was 60% each time.

In the case of `CN[C@@H]1[C@H](O[C@H]2[C@H](O[C@H]3[C@H](O)[C@@H](O)[C@H](N=C(N)N)[C@@H](O)[C@@H]3N=C(N)N)O[C@@H](C)[C@]2(O)C=O)O[C@@H](CO)[C@H](O)[C@H]1O` [STREPTOMYCIN], the dissociation constant (Kd) turned out to be 61.1 µM in [4]; 26.8 µM in assay [1] (read-out: Kd); 18.5 µM in [2] (read-out: Kd); 45 µM in assay [3] (read-out: Kd); 48.2 µM in assay [9]. Further, the Ratio in assay [5] is 1.8; in assay [6], 2. For the same compound, the Activity in [7] turned out to be 47%. The figures for the IC50 in [10] and in [15] were 678 µM and 688 µM, respectively. Moreover, the inhibition entry in [11], in [12], in assay [13] and in [14] was “inactive” throughout.

For `NC[C@H]1O[C@H](O[C@H]2[C@H](O)[C@@H](O[C@H]3O[C@H](CO)[C@@H](O)[C@H](N)[C@H]3O)[C@H](N)C[C@@H]2N)[C@H](N)[C@@H](O)[C@@H]1O` [BEKANAMYCIN], the Kd result in assay [1], in [2] and in assay [3] was “Not Active” in each case. Moreover, the inhibition entry in assay [11], in [12], in [13] and in assay [14] was “inactive” in each case.

For the compound `O=C(N[C@H](CO)[C@H](O)c1ccc([N+](=O)[O-])cc1)C(Cl)Cl` [CHLORAMPHENICOL], the Kd entry in assay [1], in assay [2] and in assay [3] was “Not Active” throughout.

As to `CCC[C@@H]1C[C@@H](C(=O)N[C@@H]([C@H]2O[C@H](SC)[C@H](O)[C@@H](O)[C@H]2O)[C@@H](C)O)N(C)C1` [LINCOMYCIN], the Kd result in assay [1], in assay [2] and in assay [3] was “Not Active” each time.

With `CC(=O)NC[C@H]1CN(c2ccc(N3CCOCC3)c(F)c2)C(=O)O1` [LINEZOLID], the Kd result in assay [1], in assay [2] and in assay [3] was “Not Active” throughout.

In the case of GENTAMICIN [listing 1 of 2 here], the Ratio in assay [5] stood at 4; in [6], 1.1. In addition, in [7], the Activity amounted to 63%. In addition, the inhibition in assay [11], in assay [12], in assay [13] and in [14] was 10% each time.

Take `C[C@H]1c2cccc(O)c2C(=O)C2=C(O)[C@]3(O)C(=O)C(C(N)=O)=C(O)[C@@H](N(C)C)[C@@H]3[C@@H](O)[C@@H]21` [DOXYCYCLINE]: the dissociation constant (Kd) in [4] is 2 µM; in [1] (read-out: Kd), 0.908 µM; in assay [2] (read-out: Kd), 0.94 µM; in assay [3] (read-out: Kd), 1.42 µM; in [9], 1.62 µM. The Ratio in [5] turned out to be 1.8; in assay [6], 2. The Activity in [7] is 78%. Moreover, the IC50 in assay [8] worked out at 366 µM; in assay [16], 380 µM; in assay [10] it was 567 µM; in assay [15] it was 555 µM. Besides, the inhibition in assay [11], in assay [12], in [13] and in assay [14] was 20% throughout.

For `CCC[C@@H]1C[C@@H](C(=O)N[C@@H]([C@H]2O[C@H](SC)[C@H](O)[C@@H](O)[C@H]2O)[C@H](C)Cl)N(C)C1` [CLINDAMYCIN], the Kd entry in [1], in assay [2] and in [3] was “Not Active” in each case.

GENTAMICIN [listing 2 of 2 here]: the equilibrium dissociation constant (Kd) in assay [4] was determined as 4.2 µM; in assay [1] (read-out: Kd) it was 3.67 µM; in assay [2] (read-out: Kd), 4.98 µM; in [3] (read-out: Kd) it was 6.64 µM; in [9] it was 8.1 µM. In addition, the IC50 in assay [8] is 159 µM; in assay [16], 540 µM; in [10], 667 µM; in assay [15] it was 242 µM.
